We go through two compounds from patent publication US9232785B2, “Method for reducing sunburn damage in plants” (BASF SE, priority 2009, dated 2016).

In experiment [1] the test system is sunburn injury on winter barley. Kind of experiment: Preventive action on winter barley against sunburn injury, field trial (Example 3). It counts as in vivo. To be noted: Germany, applied at BBCH 53, evaluated 22 days after application, 0 = as untreated control, 100 = no sunburn symptoms, UV filter 2 L/ha (500 g ai/ha), Actives A & B 0.8 & 0.8 L/ha (240 & 297 g ai/ha). On the procedure:
As active substance a mixture of active substances was used called “Actives A & B”, which was prepared by mixing Active A and Active B. Active A was a fungicidal suspension concentrate comprising 6 wt % epoxiconazol, 20.8 wt % boscalid, 11.2-12.6 wt % fatty alcohol alkoxylate, C8-alkyl glucoside, and phenolsulfonic acid-formaldehyde-polycondensate sodium salt (commercially available pesticide formulation from BASF SE as Champion®). Active B a fungicidal suspoemulsion comprising 20.6 wt % fenpropimorph, 11 wt % pyraclostrobin, 4.1 wt % epoxiconazol, 20.5 wt % solvent naphtha, 11 wt % fatty alcohol ethoxylate and 4.8 wt % phenolsulfonic acid-formaldehyde-polycondensate sodium salt (commercially available pesticide formulation from BASF SE as Diamant®). UV Filter A and UV filter B were prepared as described in examples 1 and 2.
The biological trial was conducted under field conditions in Germany. […] The level of sunburn injury was evaluated 22 days after application (% estimation of destroyed leaf area).
The sunburn injury assessments were converted into efficacies. […] The expected efficacies of active compound mixtures were determined using Colby's formula [R. S. Colby, “Calculating synergistic and antagonistic responses of herbicide combinations”, Weeds 15, 20-22 (1967)] and compared with the observed efficacies.

In experiment [2] the test system is sunburn injury on barley cultivar Finita. Kind of experiment: Preventive action on winter barley against sunburn injury, field trial, two timings (Example 5). In kind it is in vivo. To be noted: applied at BBCH 53, Actives A & B 0.8 l/ha, UV Filter 2.0 l/ha, Surround 10 kg/ha, % destroyed leaf area. On the procedure:
The biological trial was conducted under field conditions in Germany. The barley cultivar […] was planted and grown under standard conditions with adequate supply of water and nutrients. At BBCH 53 0.8 l/ha of Actives A & B and 2.0 l/ha UV Filter A or B were applied. For comparison, the Surround® (commercially available from Engelhard Corp., wettable powder comprising 95 wt % kaolin) was applied at a rate of 10 kg/ha. The level of sunburn injury was evaluated 15 and 22 days after application (% estimation of destroyed leaf area).

With `COCCOCCOCCOCCOCCOCCOCCOC(=O)C(C#N)=C(c1ccccc1)c1ccccc1` [UV Filter A, 2-Cyano-3,3-diphenyl-acrylsäure-[Pluriol A350E]-ester], in experiment [1], the Efficacy is reported as 4. In experiment [2], the “% sunburn injury 15 days after application” value stood at 38% and the “% sunburn injury 22 days after application” value is 96%.
The matching figures for `COCCOCCOCCOCCOCCOCCOCCOC(=O)CCc1cc(-n2nc3ccccc3n2)c(O)c(C(C)(C)C)c1` [UV Filter B, 3-(3-Benzotriazol-2-yl-5-tert-butyl-4-hydroxyphenyl)-propiosäure-[Pluriol A350E]-ester]: 3, 36% and 97%.
